Among the data in paper PMC8645336, “Benchmarking a highly selective USP30 inhibitor for enhancement of mitophagy and pexophagy” (Life Science Alliance, 2021) are remaining activity values, retold here.

Structures are written as SMILES.

For one experiment, the target named is T1, BAP1 (Homo sapiens, UniProt Q92560).
T1 sequence (Q92560 1-729): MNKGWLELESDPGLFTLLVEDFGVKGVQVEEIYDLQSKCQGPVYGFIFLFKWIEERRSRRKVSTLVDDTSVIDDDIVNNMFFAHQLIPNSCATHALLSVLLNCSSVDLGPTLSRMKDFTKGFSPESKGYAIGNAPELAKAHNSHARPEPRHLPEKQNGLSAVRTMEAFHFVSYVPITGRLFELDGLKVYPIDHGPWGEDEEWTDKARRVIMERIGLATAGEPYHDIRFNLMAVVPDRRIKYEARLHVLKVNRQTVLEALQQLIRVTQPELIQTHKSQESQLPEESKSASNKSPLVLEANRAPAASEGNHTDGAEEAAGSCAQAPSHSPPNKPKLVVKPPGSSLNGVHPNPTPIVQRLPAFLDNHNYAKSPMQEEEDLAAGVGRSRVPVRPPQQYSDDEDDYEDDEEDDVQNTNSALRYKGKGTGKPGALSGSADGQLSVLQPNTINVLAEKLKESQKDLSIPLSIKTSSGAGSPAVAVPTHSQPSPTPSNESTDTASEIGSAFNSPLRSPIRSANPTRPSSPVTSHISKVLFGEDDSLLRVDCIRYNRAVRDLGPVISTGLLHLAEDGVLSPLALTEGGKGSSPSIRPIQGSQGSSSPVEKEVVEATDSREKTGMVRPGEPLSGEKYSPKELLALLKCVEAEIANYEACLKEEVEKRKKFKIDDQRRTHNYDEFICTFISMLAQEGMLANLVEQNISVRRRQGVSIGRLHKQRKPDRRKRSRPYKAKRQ
The experiment can be described thus: biochemical. Details: Ubiquigent DUB profiler selectivity panel, remaining enzyme activity as % of control. Particulars: read-out: % of control remaining. In short, it runs like this:
(§1)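 CMPD-39 selectivity was profiled at 1-100 μM across >40 DUBs. Cellular engagement used 2 h CMPD-39 pretreatment, then HA-Ub-PA probe for 10 min at 37°C, with USP30 band shift on immunoblot. TOMM20 ubiquitylation was blotted in YFP-PRKN hTERT-RPE1 cells after 1 h antimycin A/oligomycin A (1 μM each).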

The target of a further experiment is T2, USP28 (Homo sapiens, UniProt Q96RU2).
T2 sequence (Q96RU2 1-1077): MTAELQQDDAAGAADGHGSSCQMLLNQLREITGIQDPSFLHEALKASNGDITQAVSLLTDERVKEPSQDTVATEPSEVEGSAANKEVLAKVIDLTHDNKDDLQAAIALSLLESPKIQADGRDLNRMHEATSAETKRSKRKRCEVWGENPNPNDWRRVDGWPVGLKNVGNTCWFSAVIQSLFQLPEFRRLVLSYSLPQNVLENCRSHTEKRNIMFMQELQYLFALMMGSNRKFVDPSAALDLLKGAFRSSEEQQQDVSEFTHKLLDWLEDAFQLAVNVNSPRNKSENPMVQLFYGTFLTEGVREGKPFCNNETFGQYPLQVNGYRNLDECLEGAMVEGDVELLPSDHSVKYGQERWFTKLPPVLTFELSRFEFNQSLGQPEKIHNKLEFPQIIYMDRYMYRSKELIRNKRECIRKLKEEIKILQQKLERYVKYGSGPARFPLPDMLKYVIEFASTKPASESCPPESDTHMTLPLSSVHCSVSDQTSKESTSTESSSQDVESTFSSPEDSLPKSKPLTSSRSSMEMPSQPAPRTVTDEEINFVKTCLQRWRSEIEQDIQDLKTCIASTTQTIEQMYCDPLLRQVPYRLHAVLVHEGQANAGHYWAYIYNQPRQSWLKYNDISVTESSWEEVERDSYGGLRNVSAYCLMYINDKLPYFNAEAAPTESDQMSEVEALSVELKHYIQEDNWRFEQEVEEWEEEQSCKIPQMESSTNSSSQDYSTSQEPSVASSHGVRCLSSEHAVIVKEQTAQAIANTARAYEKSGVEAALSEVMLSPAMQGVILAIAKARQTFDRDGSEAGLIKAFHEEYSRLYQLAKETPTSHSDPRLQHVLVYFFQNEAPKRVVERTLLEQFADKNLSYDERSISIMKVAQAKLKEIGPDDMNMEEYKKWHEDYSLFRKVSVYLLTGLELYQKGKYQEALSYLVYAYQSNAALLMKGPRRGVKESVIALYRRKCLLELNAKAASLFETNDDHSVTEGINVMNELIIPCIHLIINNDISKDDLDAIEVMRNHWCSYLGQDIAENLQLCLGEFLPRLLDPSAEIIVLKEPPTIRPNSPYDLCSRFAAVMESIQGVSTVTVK
As to the kind of experiment: biochemical. Also on record: Ubiquigent DUB profiler selectivity panel, remaining enzyme activity as % of control. The settings on record: read-out: % of control remaining. In short, it runs like this:
as §1

For the molecule `CC(C)(C)NS(=O)(=O)c1ccc(NC(=O)[C@H](Cc2ccccc2)NC(=O)c2ccc(F)cc2)cc1` [compound 39, CMPD-39], on BAP1, the remaining activity at 1 µM is 104%, the remaining activity at 10 µM is 89% and the remaining activity at 100 µM turned out to be 96.5%. In addition, on USP28, the remaining activity at 1 µM turned out to be 96.5%, the remaining activity at 10 µM worked out at 94.2% and the remaining activity at 100 µM turned out to be 102%.
